Assay [1] concerns the target T1, PPARγ (Homo sapiens, UniProt P37231).
T1 construct: gene PPARG; hPPARγ plasmid
T1 sequence (P37231 1-505): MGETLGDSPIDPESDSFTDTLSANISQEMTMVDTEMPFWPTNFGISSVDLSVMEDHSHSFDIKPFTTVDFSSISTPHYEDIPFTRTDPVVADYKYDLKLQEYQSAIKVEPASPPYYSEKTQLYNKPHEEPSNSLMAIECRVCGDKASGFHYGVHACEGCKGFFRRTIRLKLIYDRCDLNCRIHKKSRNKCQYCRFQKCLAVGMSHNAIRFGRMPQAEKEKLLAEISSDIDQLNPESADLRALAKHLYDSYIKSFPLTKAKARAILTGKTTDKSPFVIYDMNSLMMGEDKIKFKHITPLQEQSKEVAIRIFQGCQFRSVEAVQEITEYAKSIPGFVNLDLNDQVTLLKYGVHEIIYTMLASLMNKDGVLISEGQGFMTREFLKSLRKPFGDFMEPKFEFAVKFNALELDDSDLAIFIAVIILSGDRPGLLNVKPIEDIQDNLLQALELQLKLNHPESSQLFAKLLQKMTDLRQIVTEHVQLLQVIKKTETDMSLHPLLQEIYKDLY
Briefly: cos-7 cells transfected with hPPARγ, PPRE×[…] TK-luciferase transactivation assay at […]. Format: cell-based.

For assay [2], the target named is T2, PPARγ (Homo sapiens, UniProt P37231).
T2 construct: gene PPARG; PPARγ LBD
T2 sequence (P37231 231-505 limits assumed): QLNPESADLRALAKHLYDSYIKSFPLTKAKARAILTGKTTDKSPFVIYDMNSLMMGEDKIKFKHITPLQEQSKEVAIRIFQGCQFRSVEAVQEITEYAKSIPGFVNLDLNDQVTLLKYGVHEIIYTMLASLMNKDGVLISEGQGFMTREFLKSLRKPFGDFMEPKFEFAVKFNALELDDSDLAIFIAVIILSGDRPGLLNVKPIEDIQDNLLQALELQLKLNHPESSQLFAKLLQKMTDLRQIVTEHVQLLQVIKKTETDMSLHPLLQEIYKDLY
The assay is described as follows: LanthaScreen TR-FRET competitive binding assay (IC50 […]); supported by cell-based PPRE-luciferase assay (weak/partial agonism).

Consider `Clc1ccc(C(Cn2ccnc2)OCc2ccc(Sc3ccccc3)cc2)c(Cl)c1` (centres unmarked) [FN, fenticonazole], for which the “cos-7 cells transfected with hPPARγ, PPRE×3 TK-luciferase transactivation assay” value at PPARγ [1] is listed as “podophyllotoxone exhibited weak PPARγ agonistic activity, similar to fenticonazole (FN), a PPARγ partial agonist”.
A word on the Ki: it is the equilibrium dissociation constant of an inhibitor or competing ligand from its target. Lower therefore signals tighter binding. The compound `COc1cc([C@@H]2c3cc4c(cc3C(=O)[C@H]3COC(=O)[C@H]23)OCO4)cc(OC)c1OC` [podophyllotoxone] gave a Ki at PPARγ [2] of 9.86 µM.

The values above are taken from paper PMC11509912, “Identification of Novel PPARγ Partial Agonists Based on Virtual Screening Strategy: In Silico and In Vitro Experimental Validation” (Molecules, 2024).
